Here are results for one molecule from patent publication US10385113B2, “Engineered FGF compositions and methods of use thereof” (THE BOARD OF TRUSTEES OF THE UNIVERSITY OF ARKANSAS, priority 2016, dated 2019).

For assay [1], the target named is T1, human FGF-1 (hFGF-1) mutant R136E, SEQ ID NO: 4 (Homo sapiens, UniProt P05230, R137E).
T1 construct: made in house
Description: Isothermal titration calorimetry (ITC) of FGF-1 mutant R136E with SOS. Type of assay: binding. The conditions noted are these: 10 mM phosphate, 100 mM NaCl, 50 mM ammonium sulfate, pH 6.5, 25° C., FIG. 10C, read-out: dissociation constant (Kd). Here is the method: (§1) For WT hFGF-1, and mutant proteins were in the cell and at a concentration of 0.05 mM in a buffer of 10 mM phosphate, 100 mM NaCl, 50 mM ammonium sulfate, pH 6.5. […] The data was analyzed using Origin scientific plotting software.
(§2) ITC is a method used to directly evaluate the affinity and enthalpy of binding reactions.
(In general: Isothermal titration calorimetry measures the heat released or taken up as one component is titrated into another.)

For assay [2], the target named is T2, human FGF-1 (hFGF-1), wild type (wtFGF-1), SEQ ID NO: 2 (Homo sapiens, UniProt P05230).
T2 construct: made in house
The assay can be described thus: Isothermal titration calorimetry (ITC) of wild-type FGF-1 with SOS. Type of assay: binding. Particulars: FIG. 10A. How it is done: as §1, §2

T2 sequence (P05230 16-155): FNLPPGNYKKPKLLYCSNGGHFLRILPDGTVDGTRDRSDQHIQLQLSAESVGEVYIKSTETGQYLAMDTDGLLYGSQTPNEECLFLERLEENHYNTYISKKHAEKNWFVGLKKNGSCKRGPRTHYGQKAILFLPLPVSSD
T1 sequence (P05230 16-155 R137E): as the sequence (P05230 16-155) above, with R122E counted along it

Broadly, the Kd is the constant that tells how readily two partners part at equilibrium. As to `O=S(=O)(O)OC[C@H]1O[C@@](COS(=O)(=O)O)(O[C@H]2O[C@H](COS(=O)(=O)O)[C@@H](OS(=O)(=O)O)[C@H](OS(=O)(=O)O)[C@H]2OS(=O)(=O)O)[C@@H](OS(=O)(=O)O)[C@@H]1OS(=O)(=O)O` [SOS, sucrose octasulfate], the Kd in assay [1] amounted to 72.4 µM; in assay [2] (10 mM phosphate, 100 mM NaCl, 50 mM ammonium sulfate, pH 6.5, 25° C., read-out: dissociation constant (Kd)), 2600 nM. The “affinity to SOS (binding isotherm)” value in assay [2] (compared with R136E, result in words) is “strong affinity”.
